In patent publication US20220313650A1, “METHODS FOR TREATING NEURODEVELOPMENTAL DISORDERS” (The Broad Institute, Inc., priority 2019, published 2022):
“Also recorded” adds a separate entry of the source.

What was measured:
TRN neurons = experiment: Spontaneous EPSC recordings from TRN neurons, WT mice; format: cell-based; conditions: LY379268 1 uM, with PTX
Experimental: For conducting slice electrophysiology analysis, whole-cell patch-clamp recordings were performed using horizontal slices for the rebound bursting assays and angled-coronal thalamocortical slices for the synaptic optogenetics experiments (Agmon et al., 1991). 21-35 day old male C57BL6 mice and Ptchd1 Y/− (knockout) mice were used. Animals were transcardially perfused under isoflurane anesthesia with an ice-cold cutting solution (194 mM Sucrose, 30 mM NaCl, 4.5 mM KCl, 1.2 mM NaH2PO4, 10 mM Glucose, 2 mM MgCl2, 0.2 mM CaCl2, and 26 mM NaHCO3). Mice were then decapitated and the brains were carefully dissected out. Both cerebellum and olfactory bulb were removed from the brain and were placed and glued onto the stage of a Leica Vibratome with the ventral surface down and the pial surface towards the blade. 250 micron thick slices containing the TRN were then collected and recovered in regular artificial cerebrospinal fluid (aCSF; 119 mM NaCl, 2.3 mM KCl, 1 mM NaH2PO4; 11 mM Glucose, 1.3 mM MgCl2, 2.5 mM CaCl2), 26 mM NaHCO3) heated to 32° C. for 10 minutes and then at room temperature for at least 1 hr. All buffers were continuously bubbled with 95% O2/5% C02. Slices were then transferred to a submersion recording chamber where they were perfused with aCSF at a rate of 2 ml/min at room temperature. […]

Ptchd1 KO mice = experiment: Auditory GO/NO GO noise filtering test, Ptchd1 KO mice; format: in vivo; conditions: LY379268 5 mg/kg i.p.
Experimental: Behavioral Training and Testing was conducted. In brief, behavioral training and testing took place in grid-floor mounted, custom-built enclosures made of acrylic plastic (dimensions in cm: length: 15.2; width: 12.7; height: 24). All enclosures contained custom-designed operant ports, each of which was equipped with an IR LED/IR phototransistor pair (Digikey, Thief River Falls, Minn.) for nose-poke detection. Trial initiation was achieved through an initiation port mounted on the grid floor 6 cm away from the ‘response ports’ located at the front of the chamber. A pair of electrostatic speakers (Tucker Davis Technologies) producing the auditory stimuli were placed outside of the training apparatus and sound stimuli were conveyed via cylindrical tubes to apertures located at either side of the initiation port, allowing delivery of stereotypical stimuli across trials. All stimuli across tasks were generated by a TDT Rx8 sound system (Tucker-Davis Technologies, Alachua, Fla.). Sound stimuli were recorded and assessed for intensity using a prepolarized icp array microphone (PCB Piezotronics, Depew, N.Y.) after which frequency production was equalized using a software-based calibration via SigCalRP (Tucker-Davis Technologies, Alachua Fla.). […]
The sequence of “NO GO” stimuli followed a pre-determined pseudorandomized sequence which was shifted across testing sessions. […]

N[C@@]1(C(=O)O)COC2C(C(=O)O)C21 (stereo in doubt) [LY379268, (1R,4R,5S,6R)-4-Amino-2-oxabicyclo[3.1.0] hexane-4,6-dicarboxylic acid]
frequency of sEPSCs (TRN neurons): significantly reduced the frequency
percentage of correct responses, auditory stimuli embedded with noise (Ptchd1 KO mice): fully rescued noise filtering deficits in the Ptchd1 KO to control level; also recorded: rescued to control levels
